The record followed here is US9751865B2, “Dihydro-hydantoin derivatives with herbicidal activity” (SYNGENTA PARTICIPATIONS AG, priority 2013, dated 2017).

Holding throughout (format): in vivo
For assay [1], the system named is Abutilon theophrasti. Description: Post-emergence herbicidal activity, ABUTH. The arrangement: key: 5=total damage to plant; 0=no damage to plant. As to conditions: application post-emergence, 1000 g/Ha, evaluated after 13 days, scale 0-5. As for the experimental part: (§1) Seeds of a variety of test species were sown in standard soil in pots. After 8 days cultivation (post-emergence) under controlled conditions in a glasshouse (at 24/16° C., day/night; 14 hours light; 65% humidity), the plants were sprayed with an aqueous spray solution derived from the formulation of the technical active ingredient in acetone/water (50:50) solution containing 0.5% Tween 20 (polyoxyethelyene sorbitan monolaurate, CAS RN 9005-64-5). The test plants were then grown in a glasshouse under controlled conditions (at 24/16° C., day/night; 14 hours light; 65% humidity) and watered twice daily. After 13 days, the test was evaluated (5=total damage to plant; 0=no damage to plant).

The test system of assay [2] is Zea mays. Description: Pre-emergence herbicidal activity, ZEAMX. As to conditions: application pre-emergence, 1000 g/Ha, evaluated after 13 days, scale 0-5. The arrangement: key: 5=total damage to plant; 0=no damage to plant. On the procedure:
as §1, with “After” for “After 8 days”, “for one day (pre-emergence)” for “(post-emergence)”

For assay [3], the system named is Amaranthus retroflexus. The assay is described as follows: Pre-emergence herbicidal activity, AMARE. The arrangement: key: 5=total damage to plant; 0=no damage to plant. To be noted: application pre-emergence, 1000 g/Ha, evaluated after 13 days, scale 0-5. As for the experimental part:
as §1, with “After” for “After 8 days”, “for one day (pre-emergence)” for “(post-emergence)”

In assay [4] the test system is Echinochloa crus-galli. The assay is described as follows: Post-emergence herbicidal activity, ECHCG. As to conditions: application post-emergence, 1000 g/Ha, evaluated after 13 days, scale 0-5. The arrangement: key: 5=total damage to plant; 0=no damage to plant. As for the experimental part: as §1
The test system of assay [5] is Amaranthus retroflexus. Description: Post-emergence herbicidal activity, AMARE. The arrangement: key: 5=total damage to plant; 0=no damage to plant. To be noted: application post-emergence, 1000 g/Ha, evaluated after 13 days, scale 0-5. On the procedure:
as §1

Assay [6] relates to Zea mays. The assay is described as follows: Post-emergence herbicidal activity, ZEAMX. The arrangement: key: 5=total damage to plant; 0=no damage to plant. To be noted: application post-emergence, 1000 g/Ha, evaluated after 13 days, scale 0-5. On the procedure:
as §1

In assay [7] the test system is Abutilon theophrasti. Description: Pre-emergence herbicidal activity, ABUTH. The arrangement: key: 5=total damage to plant; 0=no damage to plant. To be noted: application pre-emergence, 1000 g/Ha, evaluated after 13 days, scale 0-5. As for the experimental part: as §1, with “After” for “After 8 days”, “for one day (pre-emergence)” for “(post-emergence)”
In assay [8] the test system is Setaria faberi. The assay is described as follows: Pre-emergence herbicidal activity, SETFA. The arrangement: key: 5=total damage to plant; 0=no damage to plant. To be noted: application pre-emergence, 1000 g/Ha, evaluated after 13 days, scale 0-5. As for the experimental part:
as §1, with “After” for “After 8 days”, “for one day (pre-emergence)” for “(post-emergence)”

Assay [9] has as its system Setaria faberi. The assay is described as follows: Post-emergence herbicidal activity, SETFA. To be noted: application post-emergence, 1000 g/Ha, evaluated after 13 days, scale 0-5. The arrangement: key: 5=total damage to plant; 0=no damage to plant. On the procedure: as §1
In assay [10] the test system is Alopecurus myosuroides. Description: Pre-emergence herbicidal activity, ALOMY. As to conditions: application pre-emergence, 1000 g/Ha, evaluated after 13 days, scale 0-5. On the procedure:
as §1, with “After” for “After 8 days”, “for one day (pre-emergence)” for “(post-emergence)”

The subject of assay [11] is Alopecurus myosuroides. Description: Post-emergence herbicidal activity, ALOMY. As to conditions: application post-emergence, 1000 g/Ha, evaluated after 13 days, scale 0-5. The arrangement: key: 5=total damage to plant; 0=no damage to plant. As for the experimental part:
as §1

The subject of assay [12] is Echinochloa crus-galli. Description: Pre-emergence herbicidal activity, ECHCG. The arrangement: key: 5=total damage to plant; 0=no damage to plant. As to conditions: application pre-emergence, 1000 g/Ha, evaluated after 13 days, scale 0-5. As for the experimental part: as §1, with “After” for “After 8 days”, “for one day (pre-emergence)” for “(post-emergence)”

Regarding `CON1C(=O)N(c2cc3n(n2)CCC3(C)C)C(O)C1C` (stereo not drawn) [Compound A1], the ABUTH damage score with Abutilon theophrasti [1] and with Abutilon theophrasti [7] was 5 throughout. Moreover, the ZEAMX damage score came to 3 in the assay on Zea mays [2] and 5 in the assay on Zea mays [6]. The AMARE damage score with Amaranthus retroflexus [3] and in the assay with Amaranthus retroflexus [5] was 5 each time. Also, the ECHCG damage score in the assay on Echinochloa crus-galli [4] and in the assay with Echinochloa crus-galli [12] was 5 in each case. The SETFA damage score in the assay on Setaria faberi [8] is listed as 4; in the assay on Setaria faberi [9], 5. For the same compound, the ALOMY damage score in the assay on Alopecurus myosuroides [10] and in the assay on Alopecurus myosuroides [11] was 4 throughout.

Take `CC1C(O)N(c2cc(C(F)(F)F)n(C)n2)C(=O)N1C` (stereo not drawn) [Compound A2, 4-hydroxy-1,5-dimethyl-3-[1-methyl-5-(trifluoromethyl)pyrazol-3-yl]imidazolidin-2-one]: the ABUTH damage score in the assay on Abutilon theophrasti [1] and with Abutilon theophrasti [7] was 5 each time. Moreover, the ZEAMX damage score in the assay with Zea mays [2] and in the assay with Zea mays [6] was 4 in each case. In addition, the AMARE damage score in the assay with Amaranthus retroflexus [3] and with Amaranthus retroflexus [5] was 5 throughout. For the same compound, the results for the ECHCG damage score in the assay with Echinochloa crus-galli [4] and in the assay with Echinochloa crus-galli [12] were 5 and 4, respectively. Besides, the results for the SETFA damage score in the assay on Setaria faberi [8] and in the assay on Setaria faberi [9] were 4 and 5, respectively. The ALOMY damage score with Alopecurus myosuroides [10] was 4; in the assay on Alopecurus myosuroides [11] it was 5.

As to `CON1C(=O)N(c2cc(C(C)(C)C)n(C)n2)C(O)C1C` (stereo not drawn) [Compound A3], the ABUTH damage score in the assay on Abutilon theophrasti [1] and in the assay with Abutilon theophrasti [7] was 5 throughout. For the same compound, the ZEAMX damage score with Zea mays [2] is listed as 3; in the assay with Zea mays [6], 4. Further, the AMARE damage score in the assay with Amaranthus retroflexus [3] and with Amaranthus retroflexus [5] was 5 throughout. In addition, the ECHCG damage score with Echinochloa crus-galli [4] is 5; in the assay on Echinochloa crus-galli [12], 4. Also, the SETFA damage score was 4 in the assay with Setaria faberi [8] and 5 in the assay with Setaria faberi [9]. Besides, the ALOMY damage score was 4 with Alopecurus myosuroides [10] and 5 with Alopecurus myosuroides [11].

Regarding `CON1C(=O)N(c2cc(C(F)(F)F)n(C)n2)C(O)C1C` (stereo not drawn) [Compound A4, 4-hydroxy-1-methoxy-5-methyl-3-[1-methyl-5-(trifluoromethyl)pyrazol-3-yl]imidazolidin-2-one], the ABUTH damage score with Abutilon theophrasti [1] and in the assay with Abutilon theophrasti [7] was 5 in each case. For the same compound, the ZEAMX damage score worked out at 3 in the assay on Zea mays [2] and 5 in the assay with Zea mays [6]. In addition, the AMARE damage score with Amaranthus retroflexus [3] and with Amaranthus retroflexus [5] was 5 in each case. In addition, the ECHCG damage score came out at 5 with Echinochloa crus-galli [4] and 4 in the assay on Echinochloa crus-galli [12]. Further, the SETFA damage score in the assay with Setaria faberi [8] is recorded as 4; in the assay on Setaria faberi [9] it was 5. Besides, the ALOMY damage score in the assay with Alopecurus myosuroides [10] came to 4; in the assay on Alopecurus myosuroides [11] it was 5.

For `CN1CC(O)N(c2nn(C)c(C(C)(C)C)c2C#N)C1=O` (stereo not drawn) [Compound A5], the figures for the ABUTH damage score with Abutilon theophrasti [1] and with Abutilon theophrasti [7] were 4 and 2, respectively. The ZEAMX damage score was found to be 0 with Zea mays [2] and 2 in the assay with Zea mays [6]. Besides, the AMARE damage score came out at 4 with Amaranthus retroflexus [3] and 5 with Amaranthus retroflexus [5]. The ECHCG damage score in the assay with Echinochloa crus-galli [4] is 3; in the assay with Echinochloa crus-galli [12] it was 0. The SETFA damage score in the assay with Setaria faberi [8] worked out at 0; in the assay on Setaria faberi [9], 3. The ALOMY damage score was 1 in the assay on Alopecurus myosuroides [10] and 3 in the assay with Alopecurus myosuroides [11].

For the compound `CC1C(O)N(c2nn(C)c(C(C)(C)C)c2C#N)C(=O)N1C` (stereo not drawn) [Compound A6], the ABUTH damage score with Abutilon theophrasti [1] and in the assay with Abutilon theophrasti [7] was 5 in each case. Further, the ZEAMX damage score is recorded as 1 in the assay on Zea mays [2] and 2 with Zea mays [6]. The AMARE damage score in the assay on Amaranthus retroflexus [3] stood at 2; with Amaranthus retroflexus [5], 5. For the same compound, the values for the ECHCG damage score in the assay on Echinochloa crus-galli [4] and in the assay on Echinochloa crus-galli [12] were 4 and 2, respectively. For the same compound, the SETFA damage score in the assay with Setaria faberi [8] amounted to 2; in the assay with Setaria faberi [9] it was 5. The figures for the ALOMY damage score in the assay with Alopecurus myosuroides [10] and in the assay with Alopecurus myosuroides [11] were 1 and 4, respectively.

Regarding `CC1C(O)N(c2cc(C(C)(C)C)n(C)n2)C(=O)N1C` (stereo not drawn) [Compound A7], the ABUTH damage score with Abutilon theophrasti [1] came out at 5; in the assay on Abutilon theophrasti [7], 4. Further, the ZEAMX damage score with Zea mays [2] was found to be 2; in the assay with Zea mays [6], 4. The AMARE damage score with Amaranthus retroflexus [3] and in the assay with Amaranthus retroflexus [5] was 5 throughout. For the same compound, the ECHCG damage score was found to be 5 in the assay on Echinochloa crus-galli [4] and 4 in the assay on Echinochloa crus-galli [12]. Besides, the SETFA damage score in the assay with Setaria faberi [8] and in the assay with Setaria faberi [9] was 5 in each case. Besides, the ALOMY damage score in the assay on Alopecurus myosuroides [10] and with Alopecurus myosuroides [11] was 4 throughout.

Regarding `COC(C)(C)c1cc(N2C(=O)N(C)CC2O)nn1C` (stereo not drawn) [Compound A18], the ABUTH damage score in the assay on Abutilon theophrasti [1] and with Abutilon theophrasti [7] was 5 each time. In addition, the ZEAMX damage score in the assay on Zea mays [2] and in the assay with Zea mays [6] was 2 throughout. Further, the AMARE damage score with Amaranthus retroflexus [3] and with Amaranthus retroflexus [5] was 5 throughout. Moreover, the ECHCG damage score in the assay on Echinochloa crus-galli [4] and with Echinochloa crus-galli [12] was 4 each time. Also, the SETFA damage score in the assay on Setaria faberi [8] turned out to be 4; in the assay on Setaria faberi [9] it was 5.

Take `CON1C(=O)N(c2cc(C(C)(C)OC)n(C)n2)C(O)C1C` (stereo not drawn) [Compound A19]: the ABUTH damage score in the assay on Abutilon theophrasti [1] and in the assay with Abutilon theophrasti [7] was 5 throughout. Further, the results for the ZEAMX damage score in the assay with Zea mays [2] and in the assay with Zea mays [6] were 2 and 3, respectively. Further, the AMARE damage score in the assay with Amaranthus retroflexus [3] and in the assay on Amaranthus retroflexus [5] was 5 throughout. Further, the ECHCG damage score turned out to be 5 in the assay with Echinochloa crus-galli [4] and 4 in the assay with Echinochloa crus-galli [12]. Also, the SETFA damage score with Setaria faberi [8] was 4; in the assay on Setaria faberi [9] it was 5.

With `COC(C)(C)c1cc(N2C(=O)N(C)C(C)C2O)nn1C` (stereo not drawn) [Compound A20], the ABUTH damage score in the assay on Abutilon theophrasti [1] and in the assay on Abutilon theophrasti [7] was 5 throughout. For the same compound, the ZEAMX damage score with Zea mays [2] is recorded as 2; in the assay with Zea mays [6] it was 3. In addition, the AMARE damage score in the assay with Amaranthus retroflexus [3] and with Amaranthus retroflexus [5] was 5 each time. Besides, the ECHCG damage score in the assay on Echinochloa crus-galli [4] is 5; with Echinochloa crus-galli [12] it was 4. In addition, the SETFA damage score with Setaria faberi [8] and in the assay on Setaria faberi [9] was 4 each time.

Consider `COCC1C(O)N(c2cc(C(C)(C)OC)n(C)n2)C(=O)N1C` (stereo not drawn) [Compound A21], for which the ABUTH damage score in the assay on Abutilon theophrasti [1] and in the assay on Abutilon theophrasti [7] was 5 in each case. For the same compound, the ZEAMX damage score with Zea mays [2] and in the assay on Zea mays [6] was 2 each time. Also, the AMARE damage score in the assay with Amaranthus retroflexus [3] and in the assay on Amaranthus retroflexus [5] was 5 in each case. Further, the ECHCG damage score in the assay with Echinochloa crus-galli [4] was 3; with Echinochloa crus-galli [12], 4. Moreover, the SETFA damage score with Setaria faberi [8] and in the assay with Setaria faberi [9] was 4 each time.

On to `COCC1C(O)N(c2cc(C(C)(C)C)n(C)n2)C(=O)N1C` (stereo not drawn) [Compound A22], for which the ABUTH damage score in the assay on Abutilon theophrasti [1] and in the assay on Abutilon theophrasti [7] was 5 each time. The ZEAMX damage score with Zea mays [2] was 0; with Zea mays [6], 4. The AMARE damage score in the assay with Amaranthus retroflexus [3] and in the assay with Amaranthus retroflexus [5] was 5 in each case. Moreover, the figures for the ECHCG damage score in the assay on Echinochloa crus-galli [4] and with Echinochloa crus-galli [12] were 5 and 1, respectively. The figures for the SETFA damage score in the assay with Setaria faberi [8] and with Setaria faberi [9] were 1 and 5, respectively. Moreover, in the assay with Alopecurus myosuroides [10], the ALOMY damage score was determined as 2.
